Test results from patent US20260364057A1, “AMIDE COMPOUND, AND COMPOSITION AND USE THEREOF” (SIMCERE ZAIMING PHARMACEUTICAL CO., LTD., priority 2022, published 2026).

Target: T1, Human KIF18A (1-376aa) (Homo sapiens, UniProt Q8NI77)
T1 construct: Human KIF18A (1-376aa) protease used in the experiments; purchased Shanghai Panchao Biotechnology Co., Ltd
T1 sequence (Q8NI77 1-376): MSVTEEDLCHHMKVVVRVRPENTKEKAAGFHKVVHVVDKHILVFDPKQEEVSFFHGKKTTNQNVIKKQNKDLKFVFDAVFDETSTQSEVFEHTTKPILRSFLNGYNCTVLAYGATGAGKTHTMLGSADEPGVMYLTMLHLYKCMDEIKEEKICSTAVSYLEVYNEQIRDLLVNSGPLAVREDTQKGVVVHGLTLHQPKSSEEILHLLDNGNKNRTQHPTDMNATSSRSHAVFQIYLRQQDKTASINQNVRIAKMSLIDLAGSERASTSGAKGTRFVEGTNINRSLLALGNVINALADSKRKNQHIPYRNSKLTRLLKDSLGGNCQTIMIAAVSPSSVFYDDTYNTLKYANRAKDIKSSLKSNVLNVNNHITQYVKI
Assay: KIF18A enzyme activity assay (ADP-Glo)
Assay type: biochemical
Settings: microtubule 50 μg/mL, ATP (Km 70 μM), room temperature, 15 min, read-out: KIF18A inhibitory activity IC50
Procedure: Test Example 1: KIF18A Enzyme Activity Assay
Based on the ADP-Glo™ Kinase Assay, the ADP amount generated in the reaction was detected to reflect the enzyme activity of KIF18A.
Human KIF18A (1-376aa) […] used in the experiments, expressed by Shanghai Panchao Biotechnology Co., Ltd., was stored at −80 °C (no more than 5 freeze-thaw cycles).
The assay kit (ADP-Glo™ Kinase Assay) was purchased from Promega (Cat. No. V9101) and stored at −30 °C. The kit detects the enzyme activity by measuring ADP generated in enzyme reaction. The KIF18A enzyme and ATP generate ADP. The remaining ATP in this reaction is consumed by the ADP-Glo reagent, while the ADP generated by the KIF18A enzyme reaction is converted back to ATP by the assay reagent. The ATP then reacts with luciferin in the presence of Ultra-Glo™ luciferase, producing luminescence. The luminescent signal is positively correlated with the activity of the KIF18A enzyme.
Compounds were each subjected to 3-fold serial dilution starting from 10 μM to obtain 10 concentration points. The compounds and pure DMSO (control) were pipetted into wells of a 384-well plate using an Echo instrument, and the total volume of compound and DMSO was 100 nL; sample concentrations of gradient dilution were obtained by the instrument based on different ratios. Preparation of a KIF18A enzyme reaction buffer: […], 10 mM MgCl2, 0.01% Pluronic F-68, 1 μM Taxol, and 50 μg/mL Microtubule. KIF18A and the enzyme reaction buffer were mixed, and then the mixed solution was added to the 384-well plate and incubated at room temperature for 15 min. ATP (Km 70 μM) was then added to the mixed solution, and the mixed solution was incubated at room temperature for 15 min. 10 μL of ADP-Glo™ Reagent was well mixed with 10 μL of the mixed solution, and the mixture was incubated at room temperature for 40 min. Finally, 20 μL of ADP-Glo™ Detection Reagent was added, and the mixture was incubated at room temperature for 30 min. The chemiluminescent signal in each well was measured using an Envision plate reader (PerkinElmer, emission wavelength: 400-700 nm). In the experiment, 1 column of wells with no compound and no enzyme (chemiluminescence value was taken as [RLU]background) and 1 column of wells with enzyme but no compound (chemiluminescence value was taken as [RLU]enzyme) were provided. The chemiluminescence value of the compound adding group was taken as [RLU]cpd. The inhibition rate of the compound on […] was calculated according to the following equation: inhibition rate (%)=([RLU]enzyme−[RLU]cpd)/([RLU]enzyme−[RLU]background)×100%, and the inhibitory activity IC50 value of the compound on the enzyme activity was calculated using a four-parameter Logistic Model method. In the following equation, x represents the logarithmic form of the concentration of compound, and f (x) represents an effect value (inhibition rate of enzyme activity at the concentration): F(x)=(A+((B−A)/(1+((C/x)^D)))). A. B, C, and D are four parameters.

Row | Compound | IC50 [nM]
1 | O=C(Nc1ccc2cc3n(c2n1)CCCC3)c1ccc(NS(=O)(=O)CCO)cc1N1CCC2(CC1)CC2 [Compound 26] | < 200
2 | C=Cc1cc2c(NC(=O)c3ccc(NS(=O)(=O)CCO)cc3N3CCC4(CC3)CC4)ccnc2n1C [Compound 27] | < 200
3 | Cc1cnc2c(NC(=O)c3ccc(NS(=O)(=O)CCO)cc3N3CCC4(CC3)CC4)snc2c1 [Compound 32] | < 200
4 | O=C(Nc1ccc(F)c2c1nc1n2CCCC1)c1ccc(NS(=O)(=O)CCO)cc1N1CCC2(CC1)CC2 [Compound 33] | < 200
5 | O=C(Nc1ccnc2c1nc1n2CCCC1)c1ccc(NS(=O)(=O)CCO)cc1N1CCC2(CC1)CC2 [Compound 36] | < 200
6 | O=C(Nc1cncc2c1nc1n2CCCC1)c1ccc(NS(=O)(=O)CCO)cc1N1CCC2(CC1)CC2 [Compound 43] | < 500
7 | O=C(Nc1cccc2c1nc1n2C2CC(C1)C2)c1ccc(NS(=O)(=O)CCO)cc1N1CCC2(CC1)CC2 [Compound 46] | < 200
8 | O=C(Nc1snc2cc3c(nc12)CCCC3)c1ccc(NS(=O)(=O)CCO)cc1N1CCC2(CC1)CC2 [Compound 52] | < 200
9 | CC(C)c1cnc2c(NC(=O)c3ccc(NS(=O)(=O)CCO)cc3N3CCC4(CC3)CC4)snc2c1 [Compound 57] | < 200
10 | COC1Cc2nc3c(NC(=O)c4ccc(NS(=O)(=O)CCO)cc4N4CCC5(CC4)CC5)cccc3n2C1 (stereo not drawn) [Compound 62] | < 200
11 | COC1CCn2c1nc1c(NC(=O)c3ccc(NS(=O)(=O)CCO)cc3N3CCC4(CC3)CC4)cccc12 (stereo not drawn) [Compound 63] | < 200
12 | O=C(Nc1cc2c(c(N3CCC(F)(F)CC3)n1)CCC2)c1ccc(NS(=O)(=O)CCO)cc1N1CCC2(CC1)CC2 [Compound 66] | < 500
13 | O=C(Nc1cccc2c1nc1n2C2CC2CC1)c1ccc(NS(=O)(=O)CCO)cc1N1CCC2(CC1)CC2 (stereo not drawn) [Compound 69] | < 200
14 | O=C(Nc1ccc(=O)n(C2=CCC(F)(F)CC2)n1)c1ccc(NS(=O)(=O)CCO)cc1N1CCC2(CC1)CC2 [Compound 75] | < 200
15 | Cc1cc(NC(=O)c2ccc(NS(=O)(=O)CCO)cc2N2CCC3(CC2)CC3)c2nc3n(c2n1)CCCCC3 [Compound 79] | < 200
16 | O=C(Nc1cccc2c1nc1n2CC2(CC2)C1)c1ccc(NS(=O)(=O)CCO)cc1N1CCC2(CC1)CC2 [Compound 84] | < 500
17 | O=C(Nc1cccc2c1nc1n2CCC12CC2)c1ccc(NS(=O)(=O)CCO)cc1N1CCC2(CC1)CC2 [Compound 85] | < 500
18 | CN1CCn2c(nc3c(NC(=O)c4ccc(NS(=O)(=O)CCO)cc4N4CCC5(CC4)CC5)cccc32)C1 [Compound 89] | < 500
19 | O=C(Nc1cccc2c1nc1n2C2CC2C1)c1ccc(NS(=O)(=O)CCO)cc1N1CCC2(CC1)CC2 (stereo not drawn) [Compound 90] | < 200
20 | O=C(Nc1cccc2c1nc1n2CCC2(CC2)C1)c1ccc(NS(=O)(=O)CCO)cc1N1CCC2(CC1)CC2 [Compound 91] | < 200
21 | O=C(Nc1cn(C2CC2)c(=O)c(N2CCC(F)(F)CC2)n1)c1ccc(NS(=O)(=O)CCO)cc1N1CCC2(CC1)CC2 [Compound 93] | < 200
22 | CC1(C)C2Cn3c(nc4c(NC(=O)c5ccc(NS(=O)(=O)CCO)cc5N5CCC6(CC5)CC6)cccc43)C21 (stereo not drawn) [Compound 95] | < 200

More lines, now with the values ahead:

Row | IC50 [nM] | Compound
23 | < 200 | Cn1c(N2CCC(F)(F)CC2)nc(NC(=O)c2ccc(NS(=O)(=O)CCO)cc2N2CCC3(CC2)CC3)cc1=O [Compound 2]
24 | < 200 | Cc1nc2c(NC(=O)c3ccc(NS(=O)(=O)CCO)cc3N3CCC4(CC3)CC4)cccn2n1 [Compound 3]
25 | < 200 | O=C(Nc1cccc2c1ccn2C1CCC1)c1ccc(NS(=O)(=O)CCO)cc1N1CCC2(CC1)CC2 [Compound 4]
26 | < 200 | O=C(Nc1ccnc2c1ccn2CCC(F)(F)F)c1ccc(NS(=O)(=O)CCO)cc1N1CCC2(CC1)CC2 [Compound 5]
27 | < 200 | CC(C)n1ccc2c(NC(=O)c3ccc(NS(=O)(=O)CCO)cc3N3CCC4(CC3)CC4)ccnc21 [Compound 6]
28 | < 200 | Cc1ccnc2c(NC(=O)c3ccc(NS(=O)(=O)CCO)cc3N3CCC4(CC3)CC4)ccnc12 [Compound 7]
29 | < 200 | O=C(Nc1cccc2c1oc1ccccc12)c1ccc(NS(=O)(=O)CCO)cc1N1CCC2(CC1)CC2 [Compound 8]
30 | < 200 | Cc1nc2c(NC(=O)c3ccc(NS(=O)(=O)CCO)cc3N3CCC4(CC3)CC4)cccn2c1C [Compound 9]
31 | < 200 | O=C(Nc1ccnc2c1OCC1CCCCN21)c1ccc(NS(=O)(=O)CCO)cc1N1CCC2(CC1)CC2 (stereo not drawn) [Compound 10]
32 | < 200 | O=C(Nc1cc2nccn2c(OCCC(F)(F)F)n1)c1ccc(NS(=O)(=O)CCO)cc1N1CCC2(CC1)CC2 [Compound 13]
33 | < 200 | Cn1ccc2ccc(NC(=O)c3ccc(NS(=O)(=O)CCO)cc3N3CCC4(CC3)CC4)nc21 [Compound 15]
34 | < 200 | CN1CCc2ccc(NC(=O)c3ccc(NS(=O)(=O)CCO)cc3N3CCC4(CC3)CC4)nc21 [Compound 16]
35 | < 200 | Cc1cc(NC(=O)c2ccc(NS(=O)(=O)CCO)cc2N2CCC3(CC2)CC3)c2nc3c(n2c1)CCCC3 [Compound 18]
36 | < 200 | CN1CCOc2ccc(NC(=O)c3ccc(NS(=O)(=O)CCO)cc3N3CCC4(CC3)CC4)nc21 [Compound 19]
37 | < 200 | O=C(Nc1cc2nccn2c(N2CCC3(CC2)CC3)n1)c1ccc(NS(=O)(=O)CCO)cc1N1CCC2(CC1)CC2 [Compound 20]
38 | < 200 | O=C(Nc1cccc2c1nc1n2CCC1)c1ccc(NS(=O)(=O)CCO)cc1N1CCC2(CC1)CC2 [Compound 23]
39 | < 200 | O=C(Nc1cccc2c1nc1n2CC(F)(F)CC1)c1ccc(NS(=O)(=O)CCO)cc1N1CCC2(CC1)CC2 [Compound 25]
